Assay results reported in ChEMBL document CHEMBL1681651, “A broad spectrum anticancer nucleoside with selective toxicity against human colon cells in vitro” (2011).

Key:
Type in all cases: functional
[1] = tested on: 786-0; assay: Growth inhibition of human 786-0 cells assessed as cell growth at 1 uM after 48 hrs by SRB assay; conditions: 786-0, 48 h, read-out: Activity
[2] = tested on: ACHN; assay: Growth inhibition of human ACHN cells assessed as cell growth at 1 uM after 48 hrs by SRB assay; conditions: read-out: Activity
[3] = tested on: MCF7; assay: Growth inhibition of human MCF7 cells assessed as cell growth at 1 uM after 48 hrs by SRB assay; conditions: MCF7, 48 h, read-out: Activity
[4] = tested on: NCI/ADR-RES; assay: Growth inhibition of human NCI/ADR-RES cells assessed as cell growth at 1 uM after 48 hrs by SRB assay; conditions: read-out: Activity
[5] = tested on: NCI-H522; assay: Growth inhibition of human NCI-H522 cells after 48 hrs by […] growth inhibition assay; conditions: NCI-H522, 48 h
[6] = tested on: SK-MEL-2; assay: Growth inhibition of human SK-MEL-2 cells after 48 hrs by […] growth inhibition assay; conditions: SK-MEL-2, 48 h
[7] = tested on: SN12C; assay: Growth inhibition of human SN12C cells after 48 hrs by […] growth inhibition assay
[8] = tested on: DU-145; assay: Growth inhibition of human DU145 cells after 48 hrs by […] growth inhibition assay; conditions: DU-145, 48 h
[9] = tested on: NCI-H226; assay: Growth inhibition of human NCI-H226 cells assessed as cell growth at 0.1 uM after 48 hrs by SRB assay; conditions: NCI-H226, 48 h, read-out: Activity
[10] = tested on: HCC 2998; assay: Growth inhibition of human HCC2998 cells assessed as cell growth at 0.1 uM after 48 hrs by SRB assay; conditions: HCC 2998, 48 h, read-out: Activity
[11] = tested on: HCT-15; assay: Growth inhibition of human HCT15 cells assessed as cell growth at 0.1 uM after 48 hrs by SRB assay; conditions: HCT-15, 48 h, read-out: Activity
[12] = tested on: OVCAR-8; assay: Growth inhibition of human OVCAR8 cells assessed as cell growth at 0.1 uM after 48 hrs by SRB assay; conditions: OVCAR-8, 48 h, read-out: Activity
[13] = tested on: CAKI-1; assay: Growth inhibition of human Caki1 cells assessed as cell growth at 0.1 uM after 48 hrs by SRB assay; conditions: CAKI-1, 48 h, read-out: Activity
[14] = tested on: ACHN; assay: Growth inhibition of human ACHN cells assessed as cell growth at 10 uM after 48 hrs by SRB assay; conditions: read-out: Activity
[15] = tested on: RXF 393; assay: Growth inhibition of human RXF393 cells assessed as cell growth at 10 uM after 48 hrs by SRB assay; conditions: RXF 393, 48 h, read-out: Activity
[16] = tested on: HCT-116; assay: Growth inhibition of human HCT116 cells assessed as cell growth at 100 uM after 48 hrs by SRB assay; conditions: HCT-116, 48 h, read-out: Activity
[17] = tested on: U-251; assay: Growth inhibition of human U251 cells assessed as cell growth at 100 uM after 48 hrs by SRB assay; conditions: U-251, 48 h, read-out: Activity
[18] = tested on: SK-MEL-2; assay: Growth inhibition of human SK-MEL-2 cells assessed as cell growth at 100 uM after 48 hrs by SRB assay; conditions: SK-MEL-2, 48 h, read-out: Activity
[19] = tested on: UACC-257; assay: Growth inhibition of human UACC257 cells assessed as cell growth at 100 uM after 48 hrs by SRB assay; conditions: UACC-257, 48 h, read-out: Activity
[20] = tested on: SK-OV-3; assay: Growth inhibition of human SKOV3 cells assessed as cell growth at 100 uM after 48 hrs by SRB assay; conditions: SK-OV-3, 48 h, read-out: Activity
[21] = tested on: CAKI-1; assay: Growth inhibition of human Caki1 cells assessed as cell growth at 100 uM after 48 hrs by SRB assay; conditions: CAKI-1, 48 h, read-out: Activity
[22] = tested on: MCF7; assay: Growth inhibition of human MCF7 cells assessed as cell growth at 100 uM after 48 hrs by SRB assay; conditions: MCF7, 48 h, read-out: Activity
[23] = tested on: MDA-MB-435; assay: Growth inhibition of human MDA-MB-435 cells assessed as cell growth at 100 uM after 48 hrs by SRB assay; conditions: MDA-MB-435, 48 h, read-out: Activity
[24] = tested on: SNB-19; assay: Growth inhibition of human SNB19 cells assessed as cell growth at 1 mM after 48 hrs by SRB assay; conditions: SNB-19, 48 h, read-out: Activity
[25] = tested on: LOX IMVI; assay: Growth inhibition of human LOXIMVI cells assessed as cell growth at 1 mM after 48 hrs by SRB assay; conditions: read-out: Activity
[26] = tested on: BT-549; assay: Growth inhibition of human BT549 cells assessed as cell growth at 1 mM after 48 hrs by SRB assay; conditions: BT-549, 48 h, read-out: Activity
[27] = tested on: EKVX; assay: Growth inhibition of human EKVX cells assessed as cell growth at 1 uM after 48 hrs by SRB assay; conditions: read-out: Activity
[28] = tested on: HOP-62; assay: Growth inhibition of human HOP62 cells assessed as cell growth at 1 uM after 48 hrs by SRB assay; conditions: HOP-62, 48 h, read-out: Activity
[29] = tested on: NCI-H226; assay: Growth inhibition of human NCI-H226 cells assessed as cell growth at 1 uM after 48 hrs by SRB assay; conditions: NCI-H226, 48 h, read-out: Activity
[30] = tested on: NCI-H322M; assay: Growth inhibition of human NCI-H322M cells assessed as cell growth at 1 uM after 48 hrs by SRB assay; conditions: read-out: Activity
[31] = tested on: KM12; assay: Growth inhibition of human KM12 cells assessed as cell growth at 1 uM after 48 hrs by SRB assay; conditions: KM12, 48 h, read-out: Activity
[32] = tested on: SF-539; assay: Growth inhibition of human SF539 cells assessed as cell growth at 1 uM after 48 hrs by SRB assay; conditions: SF-539, 48 h, read-out: Activity
[33] = tested on: SNB-75; assay: Growth inhibition of human SNB75 cells assessed as cell growth at 1 uM after 48 hrs by SRB assay; conditions: SNB-75, 48 h, read-out: Activity
[34] = tested on: M14; assay: Growth inhibition of human M14 cells assessed as cell growth at 1 uM after 48 hrs by SRB assay; conditions: M14, 48 h, read-out: Activity
[35] = tested on: UACC-62; assay: Growth inhibition of human UACC62 cells assessed as cell growth at 1 uM after 48 hrs by SRB assay; conditions: UACC-62, 48 h, read-out: Activity
[36] = read-out: LC50 (the source's name)
[37] = read-out: pLC50 (the source's name) (converted)

## CCOC(=O)C[C@H]1[C@@H](O[Si](C)(C)C(C)(C)C)[C@H](n2cnc3c(NC(=O)Nc4ccccc4)ncnc32)O[C@@H]1CNC(=O)NC
[1]
  growth at 1 µM: 83%
[2]
  growth at 1 µM: 97%
[3]
  growth at 1 µM: 91%
[4]
  growth at 1 µM: 107%
[5]; read-out: GI50
  GI50: 4.36 µM
[5]; [36]
  CC50: > 100 µM
[5]; read-out: TGI
  TGI: 85.7 µM
[5]; read-out: pGI50 (converted)
  GI50: 4.37 µM
[5]; [37]
  CC50: > 100 µM
[5]; read-out: pTGI (converted)
  TGI: 85.1 µM
[6]; read-out: GI50
  GI50: 5.42 µM
[6]; [36]
  CC50: > 100 µM
[6]; read-out: TGI
  TGI: 33.1 µM
[6]; read-out: pGI50 (converted)
  GI50: 5.37 µM
[6]; [37]
  CC50: > 100 µM
[6]; read-out: pTGI (converted)
  TGI: 33.1 µM
[7]; read-out: GI50
  GI50: 9.1 µM
[7]; [36]
  CC50: > 100 µM
[7]; read-out: TGI
  TGI: > 100 µM
[7]; read-out: pGI50 (converted)
  GI50: 9.12 µM
[7]; [37]
  CC50: > 100 µM
[7]; read-out: pTGI (converted)
  TGI: > 100 µM
[8]; [36]
  CC50: 12.5 µM
[8]; read-out: pGI50 (converted)
  GI50: 5.01 µM
[8]; [37]
  CC50: 77.6 µM
[8]; read-out: pTGI (converted)
  TGI: 19.5 µM
[9]
  growth at 0.1 µM: 101%
[10]
  growth at 0.1 µM: 101%
[11]
  growth at 0.1 µM: 99%
[12]
  growth at 0.1 µM: 99%
[13]
  growth at 0.1 µM: 88%
[14]
  growth at 10 µM: 96%
[15]
  growth at 10 µM: 92%
[16]
  growth at 100 µM: 23%
[17]
  growth at 100 µM: 28%
[18]
  growth at 100 µM: 32%
[19]
  growth at 100 µM: 34%
[20]
  growth at 100 µM: 66%
[21]
  growth at 100 µM: 88%
[22]
  growth at 100 µM: 16%
[23]
  growth at 100 µM: 40%
[24]
  growth at 1000 µM: 12%
[25]
  growth at 1000 µM: 4%
[26]
  growth at 1000 µM: 51%
[27]
  growth at 1 µM: 90%
[28]
  growth at 1 µM: 92%
[29]
  growth at 1 µM: 105%
[30]
  growth at 1 µM: 90%
[31]
  growth at 1 µM: 112%
[32]
  growth at 1 µM: 91%
[33]
  growth at 1 µM: 90%
[34]
  growth at 1 µM: 82%
[35]
  growth at 1 µM: 102%

## CNC(=O)NC[C@H]1O[C@@H](n2cnc3c(NC(=O)Nc4ccccc4)ncnc32)[C@H](O[Si](C)(C)C(C)(C)C)[C@@H]1CC(=O)N(C)OC
[1]
  growth at 1 µM: 92%
[2]
  growth at 1 µM: 102%
[3]
  growth at 1 µM: 95%
[4]
  growth at 1 µM: 109%
[5]; read-out: GI50
  GI50: 11.1 µM
[5]; [36]
  CC50: > 100 µM
[5]; read-out: TGI
  TGI: > 100 µM
[5]; read-out: pGI50 (converted)
  GI50: 11 µM
[5]; [37]
  CC50: > 100 µM
[5]; read-out: pTGI (converted)
  TGI: > 100 µM
[6]; read-out: GI50
  GI50: 14.9 µM
[6]; [36]
  CC50: > 100 µM
[6]; read-out: TGI
  TGI: 83.1 µM
[6]; read-out: pGI50 (converted)
  GI50: 14.8 µM
[6]; [37]
  CC50: > 100 µM
[6]; read-out: pTGI (converted)
  TGI: 83.2 µM
[7]; read-out: GI50
  GI50: 85.3 µM
[7]; [36]
  CC50: > 100 µM
[7]; read-out: TGI
  TGI: > 100 µM
[7]; read-out: pGI50 (converted)
  GI50: 85.1 µM
[7]; [37]
  CC50: > 100 µM
[7]; read-out: pTGI (converted)
  TGI: > 100 µM
[8]; read-out: GI50
  GI50: 16.6 µM
[8]; [36]
  CC50: > 100 µM
[8]; read-out: TGI
  TGI: > 100 µM
[8]; read-out: pGI50 (converted)
  GI50: 16.6 µM
[8]; [37]
  CC50: > 100 µM
[8]; read-out: pTGI (converted)
  TGI: > 100 µM
[9]
  growth at 0.1 µM: 103%
[10]
  growth at 0.1 µM: 102%
[11]
  growth at 0.1 µM: 96%
[12]
  growth at 0.1 µM: 107%
[13]
  growth at 0.1 µM: 85%
[14]
  growth at 10 µM: 95%
[15]
  growth at 10 µM: 98%
[16]
  growth at 100 µM: 26%
[17]
  growth at 100 µM: 37%
[18]
  growth at 100 µM: 62%
[19]
  growth at 100 µM: 65%
[20]
  growth at 100 µM: 82%
[21]
  growth at 100 µM: 57%
[22]
  growth at 100 µM: 34%
[23]
  growth at 100 µM: 51%
[24]
  growth at 1000 µM: 51%
[25]
  growth at 1000 µM: 35%
[26]
  growth at 1000 µM: 26%
[27]
  growth at 1 µM: 95%
[28]
  growth at 1 µM: 88%
[29]
  growth at 1 µM: 111%
[30]
  growth at 1 µM: 98%
[31]
  growth at 1 µM: 108%
[32]
  growth at 1 µM: 94%
[33]
  growth at 1 µM: 95%
[34]
  growth at 1 µM: 98%
[35]
  growth at 1 µM: 107%
